Read-outs that look alike come from different tables or passages of the source.
Experiments:
[1] = test system: SKBr3 (estrogen receptor negative, Her2 over-expressing breast cancer cells); assay: Anti-proliferative activity against SKBr3 cells; type: cell-based; conditions: mean ± SD
Method: (§1) Once synthesized, the library of coumermycin A1 analogs containing the olefinic and saturated linkers, were evaluated for anti-proliferative activity against SKBr3 (estrogen receptor negative, Her2 over-expressing breast cancer cells), MCF-7 (estrogen receptor positive breast cancer cells), A549 (human lung adenocarcinoma epithelial), HT29 (Human colon adenocarcinoma grade II), and PC3mm2 (androgen receptor insensitive prostate cancer) cell lines. […] As shown, X is at the 6 position and Y is at the 8 position.

[2] = test system: MCF-7 (estrogen receptor positive breast cancer cells); assay: Anti-proliferative activity against MCF-7 cells; type: cell-based; conditions: mean ± SD
Method: as §1

[3] = test system: PC3mm2 (androgen receptor insensitive prostate cancer); assay: Anti-proliferative activity against PC3mm2 cells; type: cell-based
Method: as §1, with “lines. The activities produced provide insight into the optimal distance between binding sites and provide rationale for subsequent analog design.” for “lines.”

[4] = test system: A549 (human lung adenocarcinoma epithelial); assay: Anti-proliferative activity against A549 cells; type: cell-based
Method: as §1, with “lines. The activities produced provide insight into the optimal distance between binding sites and provide rationale for subsequent analog design.” for “lines.”

[5] = test system: HT29 (Human colon adenocarcinoma grade II); assay: Anti-proliferative activity against HT29 cells; type: cell-based
Method: as §1, with “lines. The activities produced provide insight into the optimal distance between binding sites and provide rationale for subsequent analog design.” for “lines.”

[6] = test system: breast cancer (SKBr3 and MCF7) cell lines; assay: Anti-proliferative activity against breast cancer cell lines (collective statements); type: cell-based; conditions: versus Compound 68
Method: as §1, with “lines. The activities produced provide insight into the optimal distance between binding sites and provide rationale for subsequent analog design.” for “lines.”
(§2) The first series of analogs included compounds with simplified moieties in lieu of the noviose sugar, while subsequent analogs included varying coumarin, noviose, and tether modifications. Many of these coumermycin A1 analogs manifested potent anti-proliferative activity that correlated directly to HSP90 inhibition as evidenced by the degradation of HSP90-dependent client proteins. Replacement of the laborious, stereochemical complex, and expensive noviose sugar with commercially available piperidine moieties produced compounds that manifested ˜100-fold increase in antiproliferative activities.

[7] = test system: prostate cancer (PC3mm2, A549 and HT29) cell lines; assay: Anti-proliferative activity against prostate cancer cell lines (collective statements); type: cell-based
Method: as §1, with “lines. The activities produced provide insight into the optimal distance between binding sites and provide rationale for subsequent analog design.” for “lines.”
as §2

[8] = Solubility in DMSO; type: physicochemical
[9] = test system: SKBr3, MCF-7, A549, HT29 and PC3mm2 cell lines; assay: Anti-proliferative activity, cell lines not specified; type: cell-based; conditions: versus Compounds 65-70
Method: as §1, with “lines. The activities produced provide insight into the optimal distance between binding sites and provide rationale for subsequent analog design.” for “lines.”

[10] = test system: HSP90-dependent client proteins (Her-2, Raf, Akt); assay: Western blot analyses of HSP90 client protein degradation in MCF-7 breast cancer cells; type: cell-based; conditions: MCF-7 lysates, 24 hour treatment, 5x and 1/2 of antiproliferative IC50
Method: Since actin is not dependent on HSP90 for its maturation, actin levels should remain constant after treatment with an HSP90 inhibitor and is therefore used as a control. […] L represents a concentration ½ of the anti-proliferative IC50 value while H represents a concentration 5 times greater than the anti-proliferative IC50 value. GDA (500 nM) represents a positive control, while DMSO (0), vehicle, serves as the negative control. […]

[11] = test system: prostate cancer (PC3mm2) cell lines; assay: Anti-proliferative activity against prostate cancer cell lines (collective statements); type: cell-based; conditions: low nanomolar, prostate cancers; read-out: anti-proliferative activities against prostate cancers
Method: as §1, with “lines. The activities produced provide insight into the optimal distance between binding sites and provide rationale for subsequent analog design.” for “lines.”
as §2

[12] = Table 4, read-out: Anti-Proliferation Activities of Biaryl Dimers, SKBr3
[13] = Table 4, read-out: Anti-Proliferation Activities of Biaryl Dimers, MCF-7
[14] = Table 4, read-out: Anti-Proliferation Activities of Biaryl Dimers, PC3mm2
[15] = Table 4, read-out: Anti-Proliferation Activities of Biaryl Dimers, A549
[16] = Table 4, read-out: Anti-Proliferation Activities of Biaryl Dimers, HT29
[17] = Table 5, read-out: Anti-Proliferation Activities Non-Noviosylated Biaryl Dimers, SKBr3
[18] = Table 5, read-out: Anti-Proliferation Activities Non-Noviosylated Biaryl Dimers, MCF-7

COc1ccc(C(=O)Nc2cc3ccc(OC4OC(C)(C)C(OC)C(O)C4O)c(C)c3oc2=O)cc1-c1cc(C(=O)Nc2cc3ccc(OC4OC(C)(C)C(OC)C(O)C4O)c(C)c3oc2=O)ccc1OC (stereo not shown) [Compound 66]
IC50 [1, 12]: 1160 ± 210 nM | IC50 [2, 13]: 760 ± 140 nM | IC50 [3, 14]: 36700 nM | IC50 [4, 15]: 36800 nM | IC50 [5, 16]: 36500 nM | fold more active than Compound 68 against breast cancer cell lines [6]: 2 fold

COc1ccc(C(=O)Nc2cc3ccc(OC4OC(C)(C)C(OC)C(O)C4O)c(OC)c3oc2=O)cc1-c1cc(C(=O)Nc2cc3ccc(OC4OC(C)(C)C(OC)C(O)C4O)c(OC)c3oc2=O)ccc1OC (stereo not shown) [Compound 70]
IC50 [1, 12]: 910 ± 120 nM | IC50 [2, 13]: 880 ± 200 nM | IC50 [3, 14]: 270 nM | IC50 [4, 15]: 210 nM | IC50 [5, 16]: 270 nM | fold more active against prostate cancer cell lines than 8-Me analog Compound 66 ([7]; versus Compound 66): 100-150 fold

COc1ccc(C(=O)Nc2cc3ccc(OC4CCN(C)CC4)c(C)c3oc2=O)cc1-c1cc(C(=O)Nc2cc3ccc(OC4CCN(C)CC4)c(C)c3oc2=O)ccc1OC [Compound 71]
IC50 [1, 17]: 4980 ± 700 nM | IC50 [2, 18]: 14200 ± 2300 nM | solubility in DMSO [8]: inherent insolubility in DMSO

COc1ccc(C(=O)Nc2cc3ccc(OCCCN(C)C)c(C)c3oc2=O)cc1-c1cc(C(=O)Nc2cc3ccc(OCCCN(C)C)c(C)c3oc2=O)ccc1OC [Compound 72]
IC50 [1, 17]: 9500 ± 1200 nM | IC50 [2, 18]: 11700 ± 1600 nM | IC50 ([3]; Table 5, read-out: Anti-Proliferation Activities Non-Noviosylated Biaryl Dimers, PC3mm2): 52300 nM | IC50 ([4]; Table 5, read-out: Anti-Proliferation Activities Non-Noviosylated Biaryl Dimers, A549): 93400 nM | IC50 ([5]; Table 5, read-out: Anti-Proliferation Activities Non-Noviosylated Biaryl Dimers, HT29): 62700 nM | solubility in DMSO [8]: inherent insolubility in DMSO | fold less active than the corresponding noviosylated coumarin-containing analogs (Compounds 65-70) [9]: ~10 fold

Cc1c(OC2CCN(C)CC2)ccc2cc(NC(=O)CCC/C=C/CCCC(=O)Nc3cc4ccc(OC5CCN(C)CC5)c(C)c4oc3=O)c(=O)oc12 [Compound 32]
IC50 ([1]; Table 2, read-out: Anti-Proliferation Activities of non-Noviosylated Olefin Dimers, SKBr3): 890 ± 10 nM | IC50 ([2]; Table 2, read-out: Anti-Proliferation Activities of non-Noviosylated Olefin Dimers, MCF7): 630 ± 30 nM | IC50 ([3]; Table 2, read-out: Anti-Proliferation Activities of non-Noviosylated Olefin Dimers, PC3mm2): 440 nM | IC50 ([4]; Table 2, read-out: Anti-Proliferation Activities of non-Noviosylated Olefin Dimers, A549): 220 nM | IC50 ([5]; Table 2, read-out: Anti-Proliferation Activities of non-Noviosylated Olefin Dimers, HT29): 240 nM | degradation of Raf and Akt, Western blot [10]: caused degradation of Raf and Akt | effect on Her2, Western blot [10]: no effect on Her2 | IC50 [11]: 200 to 400 nM | fold more active than any other dimer against prostate cancers ([7]; versus other non-noviosylated dimers): 10-20 fold

Reference: patent US9056104B2, “Dynamic inhibitors of heat shock protein 90” (THE UNIVERSITY OF KANSAS, priority 2011, dated 2015)
